From PubChem BioAssay (NCI)
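Protocol summary: plate cells (96-well), add compound at 5 concentrations, incubate 48 h, interpolate endpoints linearly. Abbreviation: GI50, concentration required for 50% inhibition of growth. TGI denotes the concentration required for complete inhibition of growth.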

Experiments:
Assay in all cases: DTP human tumour cell line panel, 48 h
MDA-MB-435 = system: MDA-MB-435
SN12C renal = system: SN12C renal
SK-OV-3 ovarian = system: SK-OV-3 ovarian
ACHN renal = system: ACHN renal
OVCAR-4 ovarian = system: OVCAR-4 ovarian
IGROV1 ovarian = system: IGROV1 ovarian
SK-MEL-2 melanoma = system: SK-MEL-2 melanoma
SK-MEL-28 melanoma = system: SK-MEL-28 melanoma
HCT-15 colon = system: HCT-15 colon
LOX IMVI melanoma = system: LOX IMVI melanoma
SF-295 CNS = system: SF-295 CNS
HT29 colon = system: HT29 colon
HOP-92 NSCLC = system: HOP-92 NSCLC
COLO 205 colon = system: COLO 205 colon
RXF 393 renal = system: RXF 393 renal
UO-31 renal = system: UO-31 renal
M14 melanoma = system: M14 melanoma
RPMI-8226 leukemia = system: RPMI-8226 leukemia
SK-MEL-5 melanoma = system: SK-MEL-5 melanoma
HCT-116 colon = system: HCT-116 colon
NCI-H226 lung = system: NCI-H226 lung
A498 renal = system: A498 renal
786-0 renal = system: 786-0 renal
MOLT-4 leukemia = system: MOLT-4 leukemia
BT-549 breast = system: BT-549 breast
HOP-62 NSCLC = system: HOP-62 NSCLC
OVCAR-5 ovarian = system: OVCAR-5 ovarian
SR leukemia = system: SR leukemia
NCI/ADR-RES ovarian = system: NCI/ADR-RES ovarian
EKVX NSCLC = system: EKVX NSCLC
SNB-75 CNS = system: SNB-75 CNS
SW-620 colon = system: SW-620 colon
U251 CNS = system: U251 CNS
UACC-257 melanoma = system: UACC-257 melanoma
CAKI-1 renal = system: CAKI-1 renal
MALME-3M melanoma = system: MALME-3M melanoma
MCF7 breast = system: MCF7 breast
NCI-H23 lung = system: NCI-H23 lung
OVCAR-8 ovarian = system: OVCAR-8 ovarian
KM12 colon = system: KM12 colon
A549 NSCLC = system: A549 NSCLC
HL-60(TB) leukemia = system: HL-60(TB) leukemia
MDA-MB-231 breast = system: MDA-MB-231 breast
SF-268 CNS = system: SF-268 CNS
SF-539 CNS = system: SF-539 CNS
K-562 leukemia = system: K-562 leukemia
CCRF-CEM leukemia = system: CCRF-CEM leukemia
HS 578T breast = system: HS 578T breast
TK-10 renal = system: TK-10 renal
NCI-H460 lung = system: NCI-H460 lung
OVCAR-3 ovarian = system: OVCAR-3 ovarian
DU-145 prostate = system: DU-145 prostate
SNB-19 CNS = system: SNB-19 CNS
UACC-62 melanoma = system: UACC-62 melanoma
T-47D breast = system: T-47D breast
PC-3 prostate = system: PC-3 prostate

## O=[N+]([O-])c1ccc(C(Br)c2ccc([N+](=O)[O-])cc2)cc1
MDA-MB-435
  GI50: 3.44 µM
  TGI: 13.5 µM
SN12C renal
  GI50: 3.07 µM
  TGI: 11 µM
SK-OV-3 ovarian
  GI50: 11 µM
  TGI: 23 µM
ACHN renal
  GI50: 11.6 µM
  TGI: 26.5 µM
OVCAR-4 ovarian
  GI50: 2.02 µM
  TGI: 4.85 µM
IGROV1 ovarian
  GI50: 1.37 µM
  TGI: 3.17 µM
SK-MEL-2 melanoma
  GI50: 4 µM
  TGI: 17.2 µM
SK-MEL-28 melanoma
  GI50: 16.6 µM
  TGI: 30.5 µM
HCT-15 colon
  GI50: 1.67 µM
  TGI: 5.26 µM
LOX IMVI melanoma
  GI50: 1.65 µM
  TGI: 3.23 µM
SF-295 CNS
  GI50: 13.9 µM
  TGI: 28.9 µM
HT29 colon
  GI50: 1.63 µM
  TGI: 5.2 µM
HOP-92 NSCLC
  GI50: 2.01 µM
  TGI: 4.99 µM
COLO 205 colon
  GI50: 11.1 µM
  TGI: 24 µM
RXF 393 renal
  GI50: 12.9 µM
  TGI: 26.1 µM
UO-31 renal
  GI50: 1.68 µM
  TGI: 5.34 µM
M14 melanoma
  GI50: 1.91 µM
  TGI: 4.2 µM
RPMI-8226 leukemia
  GI50: 2.35 µM
  TGI: 6.75 µM
SK-MEL-5 melanoma
  GI50: 2.04 µM
  TGI: 4.9 µM
HCT-116 colon
  GI50: 1.48 µM
  TGI: 4.06 µM
NCI-H226 lung
  GI50: 5.29 µM
  TGI: 23.7 µM
A498 renal
  GI50: 6.06 µM
  TGI: 23.5 µM
786-0 renal
  GI50: 9.88 µM
  TGI: 26 µM
MOLT-4 leukemia
  GI50: 2.56 µM
  TGI: 6.15 µM
BT-549 breast
  GI50: 15.8 µM
  TGI: 30.7 µM
HOP-62 NSCLC
  GI50: 12.5 µM
  TGI: 25.9 µM
OVCAR-5 ovarian
  GI50: 17 µM
  TGI: 34.3 µM
SR leukemia
  GI50: 2.36 µM
  TGI: 6.73 µM
NCI/ADR-RES ovarian
  GI50: 2.37 µM
  TGI: 6.82 µM
EKVX NSCLC
  GI50: 14 µM
  TGI: 28.7 µM
SNB-75 CNS
  GI50: 12.2 µM
  TGI: 24.7 µM
SW-620 colon
  GI50: 2.89 µM
  TGI: 12 µM
U251 CNS
  GI50: 2.31 µM
  TGI: 6.16 µM
UACC-257 melanoma
  GI50: 10.2 µM
  TGI: 24.1 µM
CAKI-1 renal
  GI50: 2.11 µM
  TGI: 4.91 µM
MALME-3M melanoma
  GI50: 2.06 µM
  TGI: 5.12 µM
MCF7 breast
  GI50: 4.07 µM
  TGI: 18.1 µM
NCI-H23 lung
  GI50: 2.12 µM
  TGI: 7.14 µM
OVCAR-8 ovarian
  GI50: 2.72 µM
  TGI: 8.4 µM
KM12 colon
  GI50: 5.09 µM
  TGI: 18.4 µM
A549 NSCLC
  GI50: 11.1 µM
  TGI: 26.5 µM
HL-60(TB) leukemia
  GI50: 8.58 µM
  TGI: 25.6 µM
MDA-MB-231 breast
  GI50: 9.54 µM
  TGI: 25.2 µM
SF-268 CNS
  GI50: 4.35 µM
  TGI: 17.7 µM
SF-539 CNS
  GI50: 15.1 µM
  TGI: 31.1 µM
K-562 leukemia
  GI50: 3.12 µM
  TGI: 10.5 µM
CCRF-CEM leukemia
  GI50: 2.11 µM
  TGI: 5.98 µM
HS 578T breast
  GI50: 17.9 µM
  TGI: 53.7 µM
TK-10 renal
  GI50: 3.01 µM
  TGI: 10.4 µM
NCI-H460 lung
  GI50: 16.3 µM
  TGI: 40.2 µM
OVCAR-3 ovarian
  GI50: 11.7 µM
  TGI: 24.3 µM
DU-145 prostate
  GI50: 15.1 µM
  TGI: 28.6 µM
SNB-19 CNS
  GI50: 15 µM
  TGI: 33.2 µM
UACC-62 melanoma
  GI50: 5.11 µM
  TGI: 22 µM
T-47D breast
  GI50: 1.69 µM
  TGI: 5.13 µM
PC-3 prostate
  GI50: 3.34 µM
  TGI: 13.5 µM
